Like-named read-outs stand apart in the source and are kept apart here.
Test system: NCI-60 standardized human tumor cell line panel
Assay: cells
Format: cell-based
[1] = cell line A549/ATCC (LC:A549/ATCC), TMI sheet
[2] = cell line BT-549 (BR:BT-549), TMI sheet
[3] = cell line CCRF-CEM (LE:CCRF-CEM), TMI sheet
[4] = cell line COLO 205 (CO:COLO 205), TMI sheet
[5] = cell line EKVX (LC:EKVX), TMI sheet
[6] = cell line HCC-2998 (CO:HCC-2998), TMI sheet
[7] = cell line HCT-15 (CO:HCT-15), TMI sheet
[8] = cell line HCT-116 (CO:HCT-116), TMI sheet
[9] = cell line HL-60(TB) (LE:HL-60(TB)), TMI sheet
[10] = cell line HOP-62 (LC:HOP-62), TMI sheet
[11] = cell line HOP-92 (LC:HOP-92), TMI sheet
[12] = cell line HT29 (CO:HT29), TMI sheet
[13] = cell line K-562 (LE:K-562), TMI sheet
[14] = cell line KM12 (CO:KM12), TMI sheet
[15] = cell line LOX IMVI (ME:LOX IMVI), TMI sheet
[16] = cell line M14 (ME:M14), TMI sheet
[17] = cell line MALME-3M (ME:MALME-3M), TMI sheet
[18] = cell line MCF7 (BR:MCF7), TMI sheet
[19] = cell line MDA-MB-435 (ME:MDA-MB-435), TMI sheet
[20] = cell line MOLT-4 (LE:MOLT-4), TMI sheet
[21] = cell line NCI-H23 (LC:NCI-H23), TMI sheet
[22] = cell line NCI-H226 (LC:NCI-H226), TMI sheet
[23] = cell line RPMI-8226 (LE:RPMI-8226), TMI sheet
[24] = cell line SF-268 (CNS:SF-268), TMI sheet
[25] = cell line SF-295 (CNS:SF-295), TMI sheet
[26] = cell line SF-539 (CNS:SF-539), TMI sheet
[27] = cell line SK-MEL-5 (ME:SK-MEL-5), TMI sheet
[28] = cell line SK-MEL-28 (ME:SK-MEL-28), TMI sheet
[29] = cell line SNB-19 (CNS:SNB-19), TMI sheet
[30] = cell line SR (LE:SR), TMI sheet
[31] = cell line SW-620 (CO:SW-620), TMI sheet
[32] = cell line T-47D (BR:T-47D), TMI sheet
[33] = cell line U251 (CNS:U251), TMI sheet
[34] = cell line UACC-62 (ME:UACC-62), TMI sheet
[35] = cell line UACC-257 (ME:UACC-257), TMI sheet

## COc1cc2cc(C(=O)N3C[C@@H](CCl)c4c3cc(OC(=O)N(CCC(=O)N3CCN(C)CC3)[C@H]3CCSSC3)c3ccccc43)[nH]c2c(OC)c1OC [P-SS60-CBI-TMI]
U251, read-out: GI50
  GI50: 160 nM
UACC-62, read-out: GI50
  GI50: 270 nM
UACC-257, read-out: GI50
  GI50: 630 nM
[1]
  NCI-60 screening: Log(GI50): -6.82
  NCI-60 screening: Log(RedIndex): 1.12
Cell line A549/ATCC (LC:A549/ATCC), TMI sheet, read-out: NCI-60 screening: Raw GI50
  GI50: 150 nM
[2]
  NCI-60 screening: Log(GI50): -6.64
  NCI-60 screening: Log(RedIndex): 0.84
Cell line BT-549 (BR:BT-549), TMI sheet, read-out: NCI-60 screening: Raw GI50
  GI50: 230 nM
[3]
  NCI-60 screening: Log(GI50): -6.66
  NCI-60 screening: Log(RedIndex): 0.66
Cell line CCRF-CEM (LE:CCRF-CEM), TMI sheet, read-out: NCI-60 screening: Raw GI50
  GI50: 220 nM
[4]
  NCI-60 screening: Log(GI50): -6.47
  NCI-60 screening: Log(RedIndex): 0.6
[5]
  NCI-60 screening: Log(GI50): -6.5
  NCI-60 screening: Log(RedIndex): 0.79
[6]
  NCI-60 screening: Log(GI50): -6.8
  NCI-60 screening: Log(RedIndex): 0.98
Cell line HCC-2998 (CO:HCC-2998), TMI sheet, read-out: NCI-60 screening: Raw GI50
  GI50: 160 nM
[7]
  NCI-60 screening: Log(GI50): -6.59
  NCI-60 screening: Log(RedIndex): 0.82
Cell line HCT-15 (CO:HCT-15), TMI sheet, read-out: NCI-60 screening: Raw GI50
  GI50: 260 nM
[8]
  NCI-60 screening: Log(GI50): -6.8
  NCI-60 screening: Log(RedIndex): 0.98
Cell line HCT-116 (CO:HCT-116), TMI sheet, read-out: NCI-60 screening: Raw GI50
  GI50: 160 nM
[9]
  NCI-60 screening: Log(GI50): -6.92
  NCI-60 screening: Log(RedIndex): 0.8
[10]
  NCI-60 screening: Log(GI50): -6.96
  NCI-60 screening: Log(RedIndex): 0.73
[11]
  NCI-60 screening: Log(GI50): -6.46
  NCI-60 screening: Log(RedIndex): 0.86
[12]
  NCI-60 screening: Log(GI50): -6.57
  NCI-60 screening: Log(RedIndex): 0.75
Cell line HT29 (CO:HT29), TMI sheet, read-out: NCI-60 screening: Raw GI50
  GI50: 270 nM
[13]
  NCI-60 screening: Log(GI50): -6.79
  NCI-60 screening: Log(RedIndex): 0.62
Cell line K-562 (LE:K-562), TMI sheet, read-out: NCI-60 screening: Raw GI50
  GI50: 160 nM
[14]
  NCI-60 screening: Log(GI50): -6.57
  NCI-60 screening: Log(RedIndex): 0.89
Cell line KM12 (CO:KM12), TMI sheet, read-out: NCI-60 screening: Raw GI50
  GI50: 270 nM
[15]
  NCI-60 screening: Log(GI50): -6.68
  NCI-60 screening: Log(RedIndex): 0.72
Cell line LOX IMVI (ME:LOX IMVI), TMI sheet, read-out: NCI-60 screening: Raw GI50
  GI50: 210 nM
[16]
  NCI-60 screening: Log(GI50): -6.72
  NCI-60 screening: Log(RedIndex): 0.9
Cell line M14 (ME:M14), TMI sheet, read-out: NCI-60 screening: Raw GI50
  GI50: 190 nM
[17]
  NCI-60 screening: Log(GI50): -6.55
  NCI-60 screening: Log(RedIndex): 0.75
[18]
  NCI-60 screening: Log(GI50): -7.45
  NCI-60 screening: Log(RedIndex): 0.95
[19]
  NCI-60 screening: Log(GI50): -6.67
  NCI-60 screening: Log(RedIndex): 0.92
Cell line MDA-MB-435 (ME:MDA-MB-435), TMI sheet, read-out: NCI-60 screening: Raw GI50
  GI50: 210 nM
[20]
  NCI-60 screening: Log(GI50): -7.05
  NCI-60 screening: Log(RedIndex): 0.82
[21]
  NCI-60 screening: Log(GI50): -7.26
  NCI-60 screening: Log(RedIndex): 0.93
[22]
  NCI-60 screening: Log(GI50): -6.36
  NCI-60 screening: Log(RedIndex): 0.52
[23]
  NCI-60 screening: Log(GI50): -6.65
  NCI-60 screening: Log(RedIndex): 0.82
Cell line RPMI-8226 (LE:RPMI-8226), TMI sheet, read-out: NCI-60 screening: Raw GI50
  GI50: 220 nM
[24]
  NCI-60 screening: Log(GI50): -6.73
  NCI-60 screening: Log(RedIndex): 0.92
Cell line SF-268 (CNS:SF-268), TMI sheet, read-out: NCI-60 screening: Raw GI50
  GI50: 190 nM
[25]
  NCI-60 screening: Log(GI50): -6.84
  NCI-60 screening: Log(RedIndex): 1.03
[26]
  NCI-60 screening: Log(GI50): -6.78
  NCI-60 screening: Log(RedIndex): 0.89
Cell line SF-539 (CNS:SF-539), TMI sheet, read-out: NCI-60 screening: Raw GI50
  GI50: 170 nM
[27]
  NCI-60 screening: Log(GI50): -6.78
  NCI-60 screening: Log(RedIndex): 0.99
Cell line SK-MEL-5 (ME:SK-MEL-5), TMI sheet, read-out: NCI-60 screening: Raw GI50
  GI50: 170 nM
[28]
  NCI-60 screening: Log(GI50): -6.53
  NCI-60 screening: Log(RedIndex): 1.09
Cell line SK-MEL-28 (ME:SK-MEL-28), TMI sheet, read-out: NCI-60 screening: Raw GI50
  GI50: 290 nM
[29]
  NCI-60 screening: Log(GI50): -6.6
  NCI-60 screening: Log(RedIndex): 0.94
Cell line SNB-19 (CNS:SNB-19), TMI sheet, read-out: NCI-60 screening: Raw GI50
  GI50: 250 nM
[30]
  NCI-60 screening: Log(GI50): -7.47
  NCI-60 screening: Log(RedIndex): 0.91
[31]
  NCI-60 screening: Log(GI50): -6.66
  NCI-60 screening: Log(RedIndex): 0.93
Cell line SW-620 (CO:SW-620), TMI sheet, read-out: NCI-60 screening: Raw GI50
  GI50: 220 nM
[32]
  NCI-60 screening: Log(GI50): -6.16
  NCI-60 screening: Log(RedIndex): 0.44
[33]
  NCI-60 screening: Log(GI50): -6.79
  NCI-60 screening: Log(RedIndex): 0.96
Cell line U251 (CNS:U251), TMI sheet, read-out: NCI-60 screening: Raw GI50
  GI50: 160 nM
[34]
  NCI-60 screening: Log(GI50): -6.57
  NCI-60 screening: Log(RedIndex): 0.75
Cell line UACC-62 (ME:UACC-62), TMI sheet, read-out: NCI-60 screening: Raw GI50
  GI50: 270 nM
[35]
  NCI-60 screening: Log(GI50): -6.2
  NCI-60 screening: Log(RedIndex): 0.5
read-out: NCI-60 screening: Raw GI50
  GI50: 230 nM

Source: article PMC10141580, “Cyclic Dichalcogenides Extend the Reach of Bioreductive Prodrugs to Harness Thiol/Disulfide Oxidoreductases: Applications to seco-Duocarmycins Targeting the Thioredoxin System” (ACS Central Science, 2023)
